Test results published in patent publication US4497806A, “Triorganotin compounds, antifungal and antibacterial compositions containing same, and method of using same” (priority 1983, dated 1985).

Columns and labels:
Escherichia coli = assay: Antibacterial activity, agar growth inhibition; format: cell-based; settings: for growth inhibition: Gram-negative, 24 hours at 37° C.
Procedure: (§1) The agar was also needed with a 1:100 dilution of an 18-hour old culture of the desired bacterial species in sterile distilled water. The plates were incubated for 24 hours at 37° C. with each bacterial strain. Observations of bacterial growth inhibition were made following the appropriate incubation period.
(§2) A solvent control was included in all evaluations, as were growth controls for all bacteria species.
(§3) These compounds were tested for antibacterial activity in the same manner as the triorganotin 5-nitro-2-furoates of the present invention.
(§4) All of the bacteria tested were obtained from the culture collection of the Department of Biological Sciences, St. John's University.

Bacillus subtilis = assay: Antibacterial activity, agar growth inhibition; format: cell-based; set-up: key: -: no inhibition of growth; +: partial inhibition; 2+: complete inhibition; settings: Gram-positive; 1 μg/ml; 24 hours at 37° C.
Procedure: (§5) The antibacterial activity of Compounds A-E was investigated by means of incorporating the compounds into sterile tryptic soy agar (Difco) at levels of 100, 10, and 1 μg/ml. The agar was also […] with a 1:100 dilution of an 18-hour old culture of the desired bacterial species in sterile distilled water. The plates were incubated for 24 hours at 37° C. with each bacterial strain. Observations of bacterial growth inhibition were made following the appropriate incubation period.
as §2
(§6) Comparative compounds 1-5 above were employed for comparison purposes. These compounds were tested for antibacterial activity in the same manner as the triorganotin 5-nitro-2-furoates of the present invention.
as §4
(§7) The ability of Compound B to inhibit the growth of other Gram-positive bacteria, using the same test procedures as described for the antibacterial activity determined in Table III above, is illustrated in Table IV below.

[1] = system: Cladosporium carpophilium (ATCC 12117); assay: Antifungal activity, agar plate growth inhibition; format: cell-based, Cladosporium carpophilum; settings: 14 days
Procedure: (§8) Dilutions of the sterile solutions were prepared and added to liquified potato dextrose agar (Difco) to yield final concentrations of 100, 10 and 1 μg/ml. The agar, containing the appropriate organotin compound, was poured into sterile petri dishes and allowed to solidify over night. The agar surface was inoculated centrally with a 2 mm^2 portion of the growth from a ten-day-old culture of each fungus of the group consisting of Aspergillus niger, Chaetomium globosum, Cladosporium carpophilum, Fusarium moniliforme, Myrotheium verrucaria, Penicillium notatum, Rhizopus stolonifer, Trichoderma viride and Trichophyton mentagrophytes, or from a two-day-old culture of Saccharomyces cerevisiae. Inoculated plates were incubated for 14 days and observations of growth inhibition were made by measuring the diameters of the colonies present on the agar surface.
(§9) A solvent was included in all evaluations, as were growth controls for all fungal species.
(§10) The following compounds were tested for comparative purposes: [drawing 6] These compounds were tested for antifungal activity in the same manner as the triorganotin 5-nitro-2-furoates of the present invention.

[2] = system: Myrothecium verrucaria (ATCC 9095); assay: Antifungal activity, agar plate growth inhibition; format: cell-based; settings: 14 days
Procedure: as §8, §9, §10

[3] = system: Trichophyton mentagrophytes (ATCC 9129); assay: Antifungal activity, agar plate growth inhibition; format: cell-based; settings: 14 days
Procedure: as §8, §9, §10

[4] = system: Rhizopus stolonifer (ATCC 10404); assay: Antifungal activity, agar plate growth inhibition; format: cell-based; settings: 14 days
Procedure: as §8, §9, §10

[5] = system: Trichoderma viride (ATCC 8678); assay: Antifungal activity, agar plate growth inhibition; format: cell-based; settings: 14 days
Procedure: as §8, §9, §10

[6] = system: Saccharomyces cerevisiae (ATCC 9896); assay: Antifungal activity, agar plate growth inhibition; format: cell-based; settings: 14 days
Procedure: as §8, §9, §10

[7] = system: Fusarium moniliforme (ATCC 10052); assay: Antifungal activity, agar plate growth inhibition; format: cell-based; settings: 14 days
Procedure: as §8, §9, §10

[8] = system: Penicillium notatum (ATCC 9179); assay: Antifungal activity, agar plate growth inhibition; format: cell-based; settings: 14 days
Procedure: as §8, §9, §10

[9] = system: Chaetomium globosum (ATCC 6205); assay: Antifungal activity, agar plate growth inhibition; format: cell-based; settings: 14 days
Procedure: as §8, §9, §10

[10] = system: Aspergillus niger (ATCC 12845); assay: Antifungal activity, agar plate growth inhibition; format: cell-based; settings: 14 days
Procedure: as §8, §9, §10

Pseudomonas aeruginosa = assay: Antibacterial activity, agar growth inhibition; format: cell-based; settings: Gram-negative, 24 hours at 37° C.
Procedure: as §1, §2, §3, §4

Bacillus megaterium = assay: Antibacterial activity, agar growth inhibition; format: cell-based; settings: Gram-positive
Procedure: as §1, §2, §3, §4

test fungi = assay: Antifungal activity, summary over the 10 test fungi; format: cell-based
Procedure: as §8, §9, §10

Staphylococcus aureus = assay: Antibacterial activity, agar growth inhibition; format: cell-based
Procedure: as §5, §2, §6, §4, §7

With CCOC(=Nc1ccccc1)[S][Sn]([c]1ccccc1)([c]1ccccc1)[c]1ccccc1 [compound 4, Ethyl N--phenyl-S--(triphenylstannyl)iso-thiocarbamate, reference compound] the “growth inhibition (in words)” value (Escherichia coli; 100 μg/ml) was “partially”, the growth inhibition (Escherichia coli; 1 μg/ml) was “-” and the growth inhibition (Escherichia coli; 10 μg/ml) was “-”. For the same compound, the growth inhibition (Bacillus subtilis) was “-”, the growth inhibition ([1]; 1 μg/ml) was “+” and the growth inhibition ([1]; 10 μg/ml) was “+”. The growth inhibition ([1]; 100 μg/ml) was 2+, the growth inhibition ([2]; 1 μg/ml) was “+” and the growth inhibition ([2]; 10 μg/ml) was “+”. For the same compound, the growth inhibition ([2]; 100 μg/ml) was “+”, the growth inhibition ([3]; 1 μg/ml) was “+” and the growth inhibition ([3]; 10 μg/ml) was 2+. For the same compound, the growth inhibition ([3]; 100 μg/ml) was 2+, the growth inhibition ([4]; 1 μg/ml) was “+” and the growth inhibition ([4]; 10 μg/ml) was “+”. The growth inhibition ([4]; 100 μg/ml) was “+”, the growth inhibition ([5]; 1 μg/ml) was “-” and the growth inhibition ([5]; 10 μg/ml) was “+”. For the same compound, the growth inhibition ([5]; 100 μg/ml) was “+”, the growth inhibition ([6]; 1 μg/ml) was “-” and the growth inhibition ([6]; 10 μg/ml) was “+”. For the same compound, the growth inhibition ([6]; 100 μg/ml) was “+”, the growth inhibition ([7]; 1 μg/ml) was “+” and the growth inhibition ([7]; 10 μg/ml) was “+”. The growth inhibition ([7]; 100 μg/ml) was “+”, the growth inhibition ([8]; 1 μg/ml) was “+” and the growth inhibition ([8]; 10 μg/ml) was “+”. The growth inhibition ([8]; 100 μg/ml) was “+”, the growth inhibition ([9]; 1 μg/ml) was “+” and the growth inhibition ([9]; 10 μg/ml) was “+”. The growth inhibition ([9]; 100 μg/ml) was 2+, the growth inhibition ([10]; 1 μg/ml) was “+” and the growth inhibition ([10]; 10 μg/ml) was “+”. For the same compound, the growth inhibition ([10]; 100 μg/ml) was “+”.
In the case of “Triphenyltin 5-nitro-2-furoate [Compound A]”, the growth inhibition (Pseudomonas aeruginosa; 1 μg/ml) is reported as “-”, the growth inhibition (Pseudomonas aeruginosa; 10 μg/ml) is reported as “-” and the growth inhibition (Pseudomonas aeruginosa; 100 μg/ml) is reported as “-”. For the same compound, the “minimum concentration for complete growth inhibition” value (Bacillus megaterium) was 1 µg/mL, the growth inhibition (Escherichia coli; 1 μg/ml) was “-” and the growth inhibition (Escherichia coli; 10 μg/ml) was “-”. For the same compound, the growth inhibition (Escherichia coli; 100 μg/ml) was “-”, the “partial growth inhibition of test fungi (in words)” value (test fungi; 1 μg/ml) was “partially inhibiting the growth of all of the test fungi, except Saccharomyces cerevisiae” and the “number of test fungi with growth completely inhibited” value (test fungi; 10 μg/ml) was 5 of the 10 test fungi. The “antifungal activity, rank among the triorganotin 5-nitro-2-furoates” value (test fungi; among Compounds A-E) was “second best antifungal agent”, the “minimum concentration for complete growth inhibition” value (Staphylococcus aureus; Gram-positive) was 1 µg/mL and the “activity relative to Comparative Compounds 2, 4 and 5” value (Staphylococcus aureus; towards Staphylococcus aureus) was “identical”. The growth inhibition ([1]; 1 μg/ml) was 2+, the growth inhibition ([1]; 10 μg/ml) was 2+ and the growth inhibition ([1]; 100 μg/ml) was 2+. For the same compound, the growth inhibition ([2]; 1 μg/ml) was “+”, the growth inhibition ([2]; 10 μg/ml) was 2+ and the growth inhibition ([2]; 100 μg/ml) was 2+. The growth inhibition ([3]; 1 μg/ml) was “+”, the growth inhibition ([3]; 10 μg/ml) was 2+ and the growth inhibition ([3]; 100 μg/ml) was 2+. For the same compound, the growth inhibition ([4]; 1 μg/ml) was “+”, the growth inhibition ([4]; 10 μg/ml) was “+” and the growth inhibition ([4]; 100 μg/ml) was “+”. For the same compound, the growth inhibition ([5]; 1 μg/ml) was “+”, the growth inhibition ([5]; 10 μg/ml) was “+” and the growth inhibition ([5]; 100 μg/ml) was “+”. For the same compound, the growth inhibition ([6]; 1 μg/ml) was “-”, the growth inhibition ([6]; 10 μg/ml) was “+” and the growth inhibition ([6]; 100 μg/ml) was “+”. The growth inhibition ([7]; 1 μg/ml) was “+”, the growth inhibition ([7]; 10 μg/ml) was “+” and the growth inhibition ([7]; 100 μg/ml) was “+”. The growth inhibition ([8]; 1 μg/ml) was “+”, the growth inhibition ([8]; 10 μg/ml) was 2+ and the growth inhibition ([8]; 100 μg/ml) was 2+. For the same compound, the growth inhibition ([9]; 1 μg/ml) was “+”, the growth inhibition ([9]; 10 μg/ml) was “+” and the growth inhibition ([9]; 100 μg/ml) was “+”. For the same compound, the growth inhibition ([10]; 1 μg/ml) was “+”, the growth inhibition ([10]; 10 μg/ml) was 2+ and the growth inhibition ([10]; 100 μg/ml) was 2+.
